Laboratory results published in patent EP4692079A1, “CYP11A1 INHIBITOR AND USE THEREOF” (priority 2023, dated 2024).
Where two headings read alike, the source gives them in different places.

Assays:
[1] = system: testosterone level in NCI-H295R cells; test: cells; format: cell-based; details: for inhibition at 0.1 µM / inhibition at 1 µM / IC50: Homo sapiens, NCI-H295R, 72 h; for IC50: read-out: Testosterone level in H295R (Elisa) IC50 nM
Method: The purpose of the experimental study was intended to detect the testosterone level in the NCI-H295R cells by adopting the Enzyme linked immunosorbent assay (ELISA), so as to evaluate the inhibitory effects of the compounds on the testosterone level in the NCI-H295R cells.
The H295R cells were purchased from ATCC, the cell complete medium contained DMEM: F12+ 10% FBS +0.00625 mg/ml insulin +0.00625 mg/ml transferrin+6.25 ng/ml selenium +1.25 mg/ml BSA+0.00535 mg/ml linoleic acid, and the cells were cultured in a 37°C, 5% CO2 incubator. The cells in the exponential growth phase were collected, and cultured in a cytokine-free medium (phenol red 1640-free +1% PS+10% css FBS+1.25 mg/ml BSA +0.00625 mg/ml insulin + 0.00625 mg/ml transferrin+6.25 ng/ml selenium+0.00535 mg/ml linoleic acid) for three days. The cells in the exponential growth phase were collected on the third day. The cell suspension was adjusted with a cytokine-free medium to a corresponding concentration and plated at 60000 cells/well, with the volume being 90 µL/well. Subsequently, 10 µL of the compounds at different concentrations was added and the plate was incubated in a CO2 incubator for three days. After the incubation was completed, according to the operation instructions for testosterone Elisa kit (Beyotime, PT872), 50 µL of the cell culture supernatant was collected from each well and centrifuged at 500 g for 5 min at room temperature and then the resulting supernatant was collected. The samples were added to the corresponding wells at 25 µl/well, and then formulated horseradish peroxidase labelled testosterone was added at 75 µl/well. The mixture was fully mixed for 10 seconds. The reaction wells were sealed with a plate-sealing film (white) and the mixture was incubated at room temperature in the dark for 120 min. The plate was washed three times with a volume of 300 µl per well, and then placed onto thick absorbent paper and dried. Chromogenic reagent TMB solution was added at 100 µl/well. The reaction wells were sealed with a plate-sealing film (white) and the mixture was incubated at room temperature in the dark for 15-20 min. Subsequently, a termination solution was added at 50 µl/well, and after the mixture was fully mixed, the absorbance value OD450 was immediately measured. The absorbance readings were processed using Graphpad Prim 8.0 software and S-shaped concentration curves were plotted and the IC50 values were calculated using a four-parameter non-linear regression model.

[2] = Pharmacokinetic test in rats; format: in vivo; details: rat, male SD rats, plasma; for Vd: read-out: Vdss
Method: 3.1 Experimental animals: Male SD rats (about 220 g, 6-8 weeks old, 6 rats/compound) were purchased from Chengdu Dossy Experimental Animals Co., Ltd.
3.2 Experimental design: On the day of the experiment, the SD rats were randomly grouped by body weight. […] Table 4 Administration information
Before and after the administration, 0.1 ml of blood was taken from the orbit of the animals under isoflurane anaesthesia and placed in an EDTAK2 centrifuge tube. The blood was centrifuged at 5000 rpm and 4°C for 10 min to collect plasma. […] Before analysis and detection, all samples were stored at -80°C. Table 5 Pharmacokinetic parameters of test compounds in plasma of rats

[3] = read-out: Testosterone level in H295R (Elisa) inh.% 100 nM, 100 nM compound, NCI-H295R cells, three days incubation
[4] = read-out: Testosterone level in H295R (Elisa) inh.% 1000 nM, 1000 nM compound, NCI-H295R cells, three days incubation
[5] = read-out: Testosterone level in H295R (Elisa) inh.% 100 nM
[6] = read-out: Testosterone level in H295R (Elisa) inh.% 1000 nM
[7] = po, intragastric administration (10 mg/kg)
[8] = intravenous administration (2.5 mg/kg)

| Compound | inhibition at 0.1 µM [1, 3] [%] | inhibition at 1 µM [1, 4] [%] | other results |
| --- | --- | --- | --- |
| O=C(N[C@H]1CC[C@H](C(=O)Nc2coc(CN3Cc4ccc(C(F)(F)F)cc4C3)cc2=O)CC1)C1CC1 [Compound 119] | 60 | 81 | – |
| O=C(OC1CC1)N1CCC(COc2coc(CN3Cc4ccc(OC5CCC5)cc4C3)cc2=O)CC1 [Compound 49] | 67.3 | 75.2 | – |
| O=C(N[C@H]1CC[C@H](COc2coc(CN3Cc4ccc(C(F)(F)F)cc4C3)cc2=O)CC1)[C@H]1CC1(F)F [Compound 65] | 80 | 78 | – |
| CS(=O)(=O)N1CCC2(CC1)CC2C(=O)N1CCC(COc2coc(CN3Cc4ccc(C(F)(F)F)cc4C3)cc2=O)CC1 (single isomer, unassigned) [Compound 70] | – | – | Testosterone level in H295R (Elisa) inh.% 100 nM ([1]; 100 nM compound, NCI-H295R cells, three days incubation): 60%; Testosterone level in H295R (Elisa) inh.% 1000 nM ([1]; 1000 nM compound, NCI-H295R cells, three days incubation): 83% |
| CS(=O)(=O)N1CC(OC(=O)N[C@H]2CC[C@H](COc3coc(CN4Cc5ccc(C(F)(F)F)cc5C4)cc3=O)CC2)C1 [Compound 64] | – | – | inhibition at 0.1 µM [1, 5]: 73%; inhibition at 1 µM [1, 6]: 75%; AUC(0-t) [2, 7]: 10100 ng·h/mL; half-life [2, 7]: 2.92 h; AUC(0-t) [2, 8]: 3440 ng·h/mL; clearance [2, 8]: 12.1 mL/min/kg; half-life [2, 8]: 2.65 h; Vd [2, 8]: 2.09 L/kg |
| CS(=O)(=O)N1CC(OC(=O)N2CC(COc3coc(CN4Cc5ccc(C(F)(F)F)cc5C4)cc3=O)C2)C1 [Compound 60] | 57.7 | 78.5 | – |
| C#Cc1ccc2c(c1)CN(Cc1cc(=O)c(OCC3CCN(C(=O)OC4COC4)CC3)co1)C2 [Compound 6] | 79.5 | 90.8 | – |
| CS(=O)(=O)N1CC(OC(=O)N2CCC(COc3coc(CN4Cc5ccc(S(F)(F)(F)(F)F)cc5C4)cc3=O)CC2)C1 [Compound 19] | 64.8 | 78.3 | – |
| Cc1nc(C(=O)N[C@H]2CC[C@H](COc3coc(CN4Cc5ccc(OC6CC6)cc5C4)cc3=O)CC2)cs1 [Compound 47] | 72.2 | 69.3 | – |
| O=C(N[C@H]1CC[C@H](CCc2coc(CN3Cc4ccc(C(F)(F)F)cc4C3)cc2=O)CC1)[C@@H]1CC1(F)F [Compound 112] | 74 | 78 | – |
| Cn1ncc(C(=O)N[C@H]2CC[C@H](/C=C/c3coc(CN4Cc5ccc(C(F)(F)F)cc5C4)cc3=O)CC2)c1F [Compound 106] | 69 | 93 | – |
| O=C(CC(F)(F)F)N[C@H]1CC[C@H](/C=C/c2coc(CN3Cc4ccc(C(F)(F)F)cc4C3)cc2=O)CC1 [Compound 102] | 79 | 82 | – |
| C/C(=C\[C@H]1CC[C@H](NC(=O)c2cnn(C)c2)CC1)c1coc(CN2Cc3ccc(C(F)(F)F)cc3C2)cc1=O [Compound 107] | – | – | inhibition at 0.1 µM [1, 5]: 60%; inhibition at 1 µM [1, 6]: 78%; AUC(0-t) [2, 7]: 22500 ng·h/mL; half-life [2, 7]: 4.15 h; AUC(0-t) [2, 8]: 6030 ng·h/mL; clearance [2, 8]: 6.96 mL/min/kg; half-life [2, 8]: 3.39 h; Vd [2, 8]: 1.55 L/kg |
| O=C(OC1CC1)N1CCC(/C=C/c2coc(CN3Cc4ccc(C(F)(F)F)cc4C3)cc2=O)CC1 [Compound 31] | – | – | AUC(0-t) [2, 7]: 13400 ng·h/mL; half-life [2, 7]: 5.65 h; AUC(0-t) [2, 8]: 4270 ng·h/mL; clearance [2, 8]: 9.48 mL/min/kg; half-life [2, 8]: 5.16 h; Vd [2, 8]: 3.41 L/kg |
| CS(=O)(=O)N1CC(OC(=O)N2CC3C(COc4coc(CN5Cc6ccc(C(F)(F)F)cc6C5)cc4=O)C3C2)C1 (centres unmarked) [Compound 77] | 71 | 84 | – |
| CC(F)(F)C(=O)N[C@H]1CC[C@H](/C=C/c2coc(CN3Cc4ccc(C(F)(F)F)cc4C3)cc2=O)CC1 [Compound 108] | 75 | 84 | – |
| O=C(O[C@H]1CCOC1)N1CCC(/C=C/c2coc(CN3Cc4ccc(OC5CC5)cc4C3)cc2=O)CC1 [Compound 48] | 72.4 | 78.5 | – |
| C#CCCS(=O)(=O)N1CCC(COc2coc(CN3Cc4ccc(C(F)(F)F)cc4C3)cc2=O)CC1 [Compound 12] | 85.6 | 83.4 | – |

| Compound | inhibition at 0.1 µM [1, 3] [%] | inhibition at 1 µM [1, 4] [%] | other results |
| --- | --- | --- | --- |
| CS(=O)(=O)N1CCC2(CC1)CC(C(=O)N1CCC(COc3coc(CN4Cc5ccc(C(F)(F)F)cc5C4)cc3=O)CC1)C2 [Compound 75] | 69 | 78 | – |
| CC1(NC2CCC(/C=C/c3coc(CN4Cc5ccc(C(F)(F)F)cc5C4)cc3=O)CC2)COC1 (single isomer, unassigned) [Compound 122] | 63 | 82 | – |
| O=C(OC1CC1)N1CC(/C=C/c2coc(CN3Cc4ccc(C(F)(F)F)cc4C3)cc2=O)C1 [Compound 53] | 61 | 67.3 | – |
| O=C(C1CC(F)(F)C1)N1CCC(COc2coc(CN3Cc4ccc(C(F)(F)F)cc4C3)cc2=O)CC1 [Compound 73] | 83 | 87 | – |
| O=C(N[C@H]1CC[C@H](COc2coc(CN3Cc4ccc(C(F)(F)F)cc4C3)cc2=O)CC1)[C@@H]1CC1(F)F [Compound 66] | 78 | 82 | – |
| CS(=O)(=O)N1CC(OC(=O)N2CCC(COc3coc(CN4Cc5ccc(OC6CC6)cc5C4)cc3=O)CC2)C1 [Compound 25] | 56 | 77 | – |
| O=C(N[C@H]1CC[C@@H](COc2coc(CN3Cc4ccc(C(F)(F)F)cc4C3)cc2=O)CC1)C1CC1(F)F (some centres unmarked) [Compound 55] | 63 | 72.7 | – |
| O=c1cc(CN2Cc3ccc(C(F)(F)F)cc3C2)occ1OC[C@H]1CC[C@H](NS(=O)(=O)c2ccsc2)CC1 [Compound 68] | 81 | 86 | – |
| O=c1cc(CN2Cc3ccc(C(F)(F)F)cc3C2)occ1OC[C@H]1CC[C@@H](NS(=O)(=O)CC2CC2)CC1 [Compound 10] | 63 | 79.7 | – |
| O=C(N[C@H]1CC[C@H](CCc2coc(CN3Cc4ccc(C(F)(F)F)cc4C3)cc2=O)CC1)[C@H]1CC1(F)F [Compound 113] | 76 | 77 | – |
| CS(=O)(=O)N1CCC2(CC1)CC2C(=O)N1CCC(COc2coc(CN3Cc4ccc(C(F)(F)F)cc4C3)cc2=O)CC1 (single isomer, unassigned) [Compound 69] | 62 | 76 | – |
| CS(=O)(=O)N[C@H]1C[C@H](C(=O)N2CCC(COc3coc(CN4Cc5ccc(C(F)(F)F)cc5C4)cc3=O)CC2)C1 [Compound 72] | 58 | 68 | – |
| CC(OC(=O)N1CCC(COc2coc(CN3Cc4ccc(C(F)(F)F)cc4C3)cc2=O)CC1)C(F)(F)F (single isomer, unassigned) [Compound 56] | 53.6 | 79.3 | – |
| O=C(N[C@H]1CC[C@H](COc2coc(CN3Cc4ccc(OC5CC5)cc4C3)cc2=O)CC1)C1CC1 [Compound 34] | – | – | IC50 [1]: 122 nM |
| O=C(CC1CC1)N1CCC(/C=C/c2coc(CN3Cc4ccc(C5CC5)cc4C3)cc2=O)CC1 [Compound 16] | 55 | 79.6 | IC50 [1]: 98.3 nM |
| O=C(OC1CC1)N1CCC(COc2coc(CN3Cc4ccc(C(F)(F)F)cc4C3)cc2=O)CC1 [Compound 32] | 76.1 | 64.3 | IC50 [1]: 117 nM |
| CS(=O)(=O)N1CC(OC(=O)N2CCC(/C=C/c3coc(CN4Cc5ccc(C(F)(F)F)cc5C4)cc3=O)CC2)C1 [Compound 26] | 61 | 78 | – |
| O=c1cc(CN2Cc3ccc(C(F)(F)F)cc3C2)occ1/C=C/[C@H]1CC[C@H](NS(=O)(=O)CC2CC2)CC1 [Compound 62] | 67 | 79 | – |
